Experimental data taken from patent US20250114345A1, “COMPOUNDS AND COMPOSITIONS AS CBP/P300 DEGRADERS AND USES THEREOF” (Oncopia Therapeutics, Inc. d/b/a/ SK Life Science Labs, priority 2023, published 2025).

Biological target: T1, p300 (Homo sapiens, UniProt Q09472)
T1 construct: host or cells: A549 P300 HiBit cells
Assay: P300 degradation, HiBit technology in A549 P300 HiBit cells (2 h)
Type: cell-based
Conditions: 2 hrs post treatment; for Dmax: A549, A549 P300 HiBit cells; for DC50: A549 P300 HiBit cells
Outline: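 A549 HiBiT knock-in cells seeded overnight at 37 °C, 5% CO2 in F-12K with 10% heat-inactivated FBS, then given serial dilutions of compound from 10 mM DMSO stocks. Lytic HiBiT detection reagent added for 10 min at room temperature; luminescence read. Potency and Dmax reported.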

T1 sequence (Q09472 whole entry): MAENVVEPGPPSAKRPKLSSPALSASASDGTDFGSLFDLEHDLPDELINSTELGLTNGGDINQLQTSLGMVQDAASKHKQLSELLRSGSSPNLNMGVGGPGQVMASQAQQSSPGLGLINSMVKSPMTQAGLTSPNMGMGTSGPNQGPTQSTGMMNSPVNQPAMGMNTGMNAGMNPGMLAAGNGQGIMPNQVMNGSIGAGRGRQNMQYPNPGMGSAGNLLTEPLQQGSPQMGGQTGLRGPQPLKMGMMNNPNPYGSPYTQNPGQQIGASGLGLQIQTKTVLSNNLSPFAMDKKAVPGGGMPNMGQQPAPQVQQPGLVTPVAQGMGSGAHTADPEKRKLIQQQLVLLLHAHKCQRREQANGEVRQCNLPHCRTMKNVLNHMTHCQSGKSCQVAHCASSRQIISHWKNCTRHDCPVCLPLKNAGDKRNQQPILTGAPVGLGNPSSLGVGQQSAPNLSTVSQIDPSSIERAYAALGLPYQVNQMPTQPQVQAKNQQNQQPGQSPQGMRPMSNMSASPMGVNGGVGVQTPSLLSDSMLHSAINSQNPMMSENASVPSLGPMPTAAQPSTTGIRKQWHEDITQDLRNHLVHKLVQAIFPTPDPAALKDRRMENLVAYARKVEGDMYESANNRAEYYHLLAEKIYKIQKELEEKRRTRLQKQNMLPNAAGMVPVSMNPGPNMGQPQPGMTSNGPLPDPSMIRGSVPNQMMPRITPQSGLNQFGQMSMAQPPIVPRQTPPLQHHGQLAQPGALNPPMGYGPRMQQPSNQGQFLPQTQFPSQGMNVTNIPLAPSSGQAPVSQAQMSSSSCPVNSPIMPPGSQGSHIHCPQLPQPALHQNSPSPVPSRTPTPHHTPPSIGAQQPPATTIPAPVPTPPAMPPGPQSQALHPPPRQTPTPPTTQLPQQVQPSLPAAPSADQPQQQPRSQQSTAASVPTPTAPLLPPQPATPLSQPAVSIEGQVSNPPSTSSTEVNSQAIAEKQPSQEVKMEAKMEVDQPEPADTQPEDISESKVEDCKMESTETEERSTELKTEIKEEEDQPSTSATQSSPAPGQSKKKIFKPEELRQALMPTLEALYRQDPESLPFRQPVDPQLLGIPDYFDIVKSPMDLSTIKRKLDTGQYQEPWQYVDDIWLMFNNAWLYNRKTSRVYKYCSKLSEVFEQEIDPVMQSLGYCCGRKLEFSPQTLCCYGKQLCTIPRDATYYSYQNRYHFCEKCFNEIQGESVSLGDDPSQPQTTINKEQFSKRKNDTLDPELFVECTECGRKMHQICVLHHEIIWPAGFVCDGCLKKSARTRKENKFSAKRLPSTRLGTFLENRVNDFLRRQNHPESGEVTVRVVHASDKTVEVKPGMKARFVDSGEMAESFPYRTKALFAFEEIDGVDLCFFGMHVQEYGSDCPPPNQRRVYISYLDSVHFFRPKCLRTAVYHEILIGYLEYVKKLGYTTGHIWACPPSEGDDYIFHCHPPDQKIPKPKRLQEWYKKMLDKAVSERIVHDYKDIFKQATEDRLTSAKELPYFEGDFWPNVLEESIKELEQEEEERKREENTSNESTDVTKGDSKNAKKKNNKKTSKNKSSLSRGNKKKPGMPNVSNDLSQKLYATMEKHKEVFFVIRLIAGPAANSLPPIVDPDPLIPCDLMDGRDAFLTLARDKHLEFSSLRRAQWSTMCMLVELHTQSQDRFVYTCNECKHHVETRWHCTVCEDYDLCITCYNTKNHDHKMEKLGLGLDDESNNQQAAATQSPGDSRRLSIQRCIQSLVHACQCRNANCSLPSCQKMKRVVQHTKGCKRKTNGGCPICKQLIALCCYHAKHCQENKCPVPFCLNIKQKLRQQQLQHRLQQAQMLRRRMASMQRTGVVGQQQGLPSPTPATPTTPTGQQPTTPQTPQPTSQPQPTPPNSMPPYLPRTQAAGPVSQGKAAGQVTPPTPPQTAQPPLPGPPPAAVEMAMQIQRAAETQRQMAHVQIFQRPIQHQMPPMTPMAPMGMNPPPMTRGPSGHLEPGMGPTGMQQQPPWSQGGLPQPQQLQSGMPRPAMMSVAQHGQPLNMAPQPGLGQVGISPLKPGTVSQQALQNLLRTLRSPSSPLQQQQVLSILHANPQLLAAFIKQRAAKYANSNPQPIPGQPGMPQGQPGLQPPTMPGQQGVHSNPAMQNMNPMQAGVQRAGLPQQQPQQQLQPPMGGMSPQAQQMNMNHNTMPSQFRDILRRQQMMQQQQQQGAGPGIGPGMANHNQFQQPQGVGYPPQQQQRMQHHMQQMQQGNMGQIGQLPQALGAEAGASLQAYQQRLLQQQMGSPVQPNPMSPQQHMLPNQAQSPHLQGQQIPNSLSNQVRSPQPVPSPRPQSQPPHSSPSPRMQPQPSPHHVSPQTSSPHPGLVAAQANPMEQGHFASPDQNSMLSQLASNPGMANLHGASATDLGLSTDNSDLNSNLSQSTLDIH

Row | Structure (SMILES) | Dmax [%] | DC50 [nM]
1 | Cc1cc(-c2ncc(N(C)c3cc(C4CCOCC4)c4c(c3)n(C)c(=O)n4C)nn2)cnc1C(=O)NCC#Cc1ccc2occ(C3CCC(=O)NC3=O)c2c1 (centres unmarked) [Example A90, 5-(6-((1,3-dimethyl-2-oxo-7-(tetrahydro-2H-pyran-4-yl)-2,3-dihydro-1H-benzo[d]imidazol-5-yl)(methyl)amino)-1,2,4-triazin-3-yl)-N-(3-(3-(2,6-dioxopiperidin-3-yl)benzofuran-5-yl)prop-2-yn-1-yl)-3-methylpicolinamide] | < 20 | 1 to 9.9
2 | Cc1cc2c(N3CCCc4nc(-c5cnc(C(=O)NCC#Cc6ccc7occ(C8CCC(=O)NC8=O)c7c6)c(Cl)c5)ncc43)cccc2n(C)c1=O (centres unmarked) [Example B155, 3-chloro-5-(5-(1,3-dimethyl-2-oxo-1,2-dihydroquinolin-5-yl)-5,6,7,8-tetrahydro-pyrido[3,2-d]pyrimidin-2-yl)-N-(3-(3-(2,6-dioxopiperidin-3-yl)benzofuran-5-yl)prop-2-yn-1-yl)picolinamide] | > 80 | 1 to 9.9
3 | Cc1cc(-c2cn(C)c(=O)c3cc(-c4ccc(C(=O)NCC#Cc5ccc6occ(C7CCC(=O)NC7=O)c6c5)nc4)ncc23)cc2c1n(C)c(=O)n2C (centres unmarked) [Example A107, N-(3-(3-(2,6-dioxo-piperidin-3-yl)benzofuran-5-yl)prop-2-yn-1-yl)-5-(6-methyl-5-oxo-8-(1,3,7-trimethyl-2-oxo-2,3-dihydro-1H-benzo[d]imidazol-5-yl)-5,6-dihydro-2,6-naphthyridin-3-yl)picolinamide] | > 80 | < 1
4 | Cc1cc(N2CCCc3nc(-c4ccc(C(=O)NCC#Cc5ccc6occ(C7CCC(=O)NC7=O)c6c5)nc4)ncc32)cc2c1n(C)c(=O)n2C (centres unmarked) [Example A146, N-(3-(3-(2,6-dioxo-piperidin-3-yl)benzofuran-5-yl)prop-2-yn-1-yl)-5-(5-(1,3,7-trimethyl-2-oxo-2,3-dihydro-1H-benzo[d]imidazol-5-yl)-5,6,7,8-tetrahydropyrido [3,2-d]pyrimidin-2-yl)picolinamide] | > 80 | 1 to 9.9
5 | CCc1cc2c(cc(C)c(=O)n2C)c(N2CCCc3nc(-c4ccc(C(=O)NCC#Cc5ccc6occ(C7CCC(=O)NC7=O)c6c5)nc4)ncc32)n1 (centres unmarked) [Example B121, N-(3-(3-(2,6-dioxopiperidin-3-yl)benzofuran-5-yl)prop-2-yn-1-yl)-5-(5-(7-ethyl-1,3-dimethyl-2-oxo-1,2-dihydro-1,6-naphthyridin-5-yl)-5,6,7,8-tetrahydropyrido[3,2-d]pyrimidin-2-yl)picolinamide] | 40 to 59 | 1 to 9.9
6 | Cc1cc2c(N3CCCc4nc(-c5ccc6c(c5)C(=O)N(CC#Cc5ccc7occ(C8CCC(=O)NC8=O)c7c5)C6)ncc43)cc(C3CCOCC3)cc2n(C)c1=O (centres unmarked) [Example B44, 3-(5-(3-(6-(5-(1,3-dimethyl-2-oxo-7-(tetrahydro-2H-pyran-4-yl)-1,2-dihydroquinolin-5-yl)-5,6,7,8-tetrahydropyrido[3,2-d]pyrimidin-2-yl)-1-oxoisoindolin-2-yl)prop-1-yn-1-yl)benzofuran-3-yl)piperidine-2,6-dione] | 20 to 39 | 1 to 9.9
7 | Cc1cc(-c2ncc3c(n2)OCCN3c2cc3c(c(N4CCOCC4)n2)n(C)c(=O)n3C)cnc1C(=O)NCC#Cc1ccc2occ(C3CCC(=O)NC3=O)c2c1 (centres unmarked) [Example A91, 5-(5-(1,3-dimethyl-4-morpholino-2-oxo-2,3-dihydro-1H-imidazo[4,5-c]pyridin-6-yl)-6,7-dihydro-5H-pyrimido[4,5-b][1,4]oxazin-2-yl)-N-(3-(3-(2,6-dioxopiperidin-3-yl)benzofuran-5-yl)prop-2-yn-1-yl)-3-methylpicolinamide] | < 20 | 10 to 99
